Results published in patent US11123323B2, “Monoterpenes for treating respiratory disorders, in particular bronchopulmonary disorders” (Maria Clemetine Martin Klosterfrau Vertriebsqesellschaft MBH, priority 2008, dated 2021).

What was measured:
[1] = system: IL-1beta production in LPS-stimulated human monocytes; test: LPS-stimulated production of IL-1beta in human monocytes in vitro (ELISA); assay type: cell-based
Source text: 1,8-Cineol intensifies in particular the action of subtherapeutic concentrations of beclometasone which are relevant for the peripheral respiratory tract.

[2] = system: superoxide production (O2^− production) of normal human monocytes; test: PMA-stimulated superoxide production (INT-formazan) of normal human monocytes in vitro; assay type: cell-based; conditions: for INT-Formazan: PMA, 20 hours; for O2^− production: FIG. 3
[3] = system: FCS-stimulated production of superoxides (O2^−) in normal human monocytes; test: FCS-stimulated superoxide production of normal human monocytes in vitro (INT-formazan); assay type: cell-based; conditions: for INT-Formazan / O2^−: FCS 10%; for INT-Formazan / Comparison to control (%): Table 4 series
Procedure: As already described, monocytes were isolated from 50 ml of venous blood which was repeatedly donated voluntarily for the experiments by healthy non-smoking subjects (n=4). […] To this end, the active compounds were incubated together with freshly isolated monocytes (10^5/ml) and the FCS stimulus (10%, from Sigma) for 20 hours in a cell culture medium (RPMI-1640, from Sigma). […] The determination of the cytosolic superoxide production is based on the reduction of the dye p-iodonitrotetrazolium violet (INTV), which reacts specifically with superoxide ions, to iodonitrotetrazolium formazan (formazan). INTV is taken up by the cells into the cytosol. Intracellularly, the nitrogen cycle of the INTV is reduced by free superoxide radicals, giving rise to a water-soluble intermediate and the water-insoluble formazan, which have their absorption maxima at 505 and 490 nm, respectively. […] At the end of an experiment, the cell lysate is (after treatment with hydrochloric acid) measured at 492 nm in a photometer. Here, the absorption of light is proportional to the amount of intracellularly accumulated INT-formazan which can then be determined using a formazan calibration curve. The INT-formazan accumulation for its part is determined as a measure for the intracellular production of superoxide.

[4] = system: NO production in stimulated human monocytes; test: NO production in stimulated human monocytes in vitro (FIG. 3); assay type: cell-based
[5] = system: patients with persistent bronchial asthma (GINA II); test: Clinical add-on therapy with oral 1,8-cineol, persistent bronchial asthma GINA II, 10 patients; assay type: in vivo, human
Procedure: 10 patients 56 to 72 years of age with persistent bronchial asthma (GINA II) treated with a combination therapy of inhalative glucocorticoid (beclometasone, 2×200 μg/day by inhalation) and inhalative long-acting beta-2-sympathomimetics (LABA, salmeterol) and also oral theophyllin were given 1,8-cineol (Soledum® capsules) 4×200 mg/day orally for one week. Even after a one-week therapy at the dose mentioned above, in 8 of the 10 subjects a slight to moderate improvement of lung function was achieved. After continuing therapy for a further twelve weeks, the persistent bronchial asthma had stabilized to such an extent that in 7 of the 10 patients the inhalative glucocorticoid required could be reduced by up to 60% and in 2 of the 10 patients the inhalative glucocorticoids could be discontinued altogether at times. […] In 5 of the patients treated, the betamimetics required, too, could be reduced by up to 40%.

[6] = system: smokers with COPD (GOLD II to III); test: Placebo-controlled double-blind study of additional therapy with 1,8-cineol in smokers with COPD; assay type: in vivo, human
Procedure: In a placebo-controlled double-blind study, the effect of an additional therapy with 1,8-cineol in the form of capsules which dissolve in the small intestine (Soledum® capsules, 3×200 mg/day, oral) on exacerbation rate and lung function was examined in 3 winter months of two successive years using 242 smokers with COPD (GOLD II to III).

[7] = system: production of TNF-α in ex-vivo stimulated peripheral human monocytes; test: TNF-α production in ex-vivo stimulated peripheral monocytes of former smokers under additional therapy; assay type: cell-based; conditions: long-term additional therapy with 1,8-cineol plus ICS-based therapy
Procedure: (§1) From these patients, monocytes were obtained during ongoing therapy with ICS and incubated in vitro with a topical glucocorticoid in a dose-dependent manner.

[8] = system: production of IL-8 in ex-vivo stimulated peripheral human monocytes; test: IL-8 production in ex-vivo stimulated peripheral monocytes of former smokers under additional therapy; assay type: cell-based; conditions: long-term additional therapy with 1,8-cineol plus ICS-based therapy
Procedure: as §1

[9] = system: superoxide dismutases (SOD); test: Superoxide dismutase activity
[10] = system: hydrogen peroxide (H2O2) production; test: Hydrogen peroxide production; conditions: low concentrations relevant for the respiratory air and therapeutic range
[11] = therapeutic range of 1,8-cineol
[12] = 1,8-cineol 6 × 10^−6 mol/l (0.9 μg/ml), Table 6 series

CC12CCC(CC1)C(C)(C)O2 [1,8-cineol, 1,3,3-trimethyl-2-oxabicyclo-[2.2.2]-octane]
production of IL-1beta, change ([1]; 1,8-cineol on its own, 10^−6 mol/l, FIG. 1): −32% | Effect vs. control Inhibition (%) ([1]; cineol 10^−6 mol/l): 32.4±17% | Effect vs. cineol 10^−6 mol/l Inhibition (%) ([1]; cineol 10^−6 mol/l (the reference itself)): 0 ± 17% | IL-1beta ([1]; cineol 10^−6 mol/l, LPS, 20 hours): 3548 ± 600 Pg/5 × 10^4 cells | Effect vs. control Inhibition (%) ([1]; cineol 10^−6 mol/l, listed as cineol): 32.4 ± 17% | LPS-stimulated production of IL1-beta compared to the LPS control ([1]; therapeutically relevant concentrations of 1,8-cineol, FIG. 2, p<0.01): inhibited by therapeutically relevant concentrations of 1,8-cineol in a dose-dependent manner and significantly | Comparison with control (%) ([2]; 0.0015 μg/ml (10^−8 mol/l)): +27.6 ± 4% | INT-Formazan ([2]; 0.0015 μg/ml (10^−8 mol/l)): 5.364 ± 229 nmol/10^5 | Comparison with control (%) ([2]; 0.015 μg/ml (10^−7 mol/l)): +24.5 ± 6% | INT-Formazan ([2]; 0.015 μg/ml (10^−7 mol/l)): 5235 ± 341 nmol/10^5 | Comparison with control (%) ([2]; 0.15 μg/ml (10^−6 mol/l)): +26.7 ± 7% | INT-Formazan ([2]; 0.15 μg/ml (10^−6 mol/l)): 5327 ± 360 nmol/10^5 | Comparison with control (%) ([2]; 0.3 μg/ml (2 × 10^−6 mol/l)): +31.8 ± 6% | INT-Formazan ([2]; 0.3 μg/ml (2 × 10^−6 mol/l)): 5540 ± 359 nmol/10^5 | Comparison with control (%) ([2]; 0.6 μg/ml (4 × 10^−6 mol/l)): +43.8 ± 9% | INT-Formazan ([2]; 0.6 μg/ml (4 × 10^−6 mol/l)): 6045 ± 534 nmol/10^5 | Comparison with control (%) ([2]; 0.9 μg/ml (6 × 10^−6 mol/l)): +45.3 ± 7% | INT-Formazan ([2]; 0.9 μg/ml (6 × 10^−6 mol/l)): 6107 ± 437 nmol/10^5 | Comparison with control (%) ([2]; 1.2 μg/ml (8 × 10^−6 mol/l)): −2.5 ± 6% | INT-Formazan ([2]; 1.2 μg/ml (8 × 10^−6 mol/l)): 4099 ± 234 nmol/10^5 | Comparison with control (%) ([2]; 1.5 μg/ml (10^−5 mol/l)): −42 ± 16% | INT-Formazan ([2]; 1.5 μg/ml (10^−5 mol/l)): 2438 ± 389 nmol/10^5 | Comparison with control (%) ([2]; 3 μg/ml (2 × 10^−5 mol/l)): −84.9 ± 22% | INT-Formazan ([2]; 3 μg/ml (2 × 10^−5 mol/l)): 634 ± 139 nmol/10^5 | O2^− production ([2]; low concentrations of 1,8-cineol): slightly induce O2^− production | O2^− production [2, 11]: inhibited strongly | INT-Formazan ([3]; 0.000015 μg/ml (10^−10 mol/l)): 21360 ± 1766 nmol/10^5 | Comparison to control (%) ([3]; 0.000015 μg/ml (10^−10 mol/l)): −0.7 ± 8% | INT-Formazan ([3]; 0.00015 μg/ml (10^−9 mol/l)): 21329 ± 1920 nmol/10^5 | Comparison to control (%) ([3]; 0.00015 μg/ml (10^−9 mol/l)): −0.8 ± 9% | INT-Formazan ([3]; 0.0015 μg/ml (10^−8 mol/l)): 21946 ± 1858 nmol/10^5 | Comparison to control (%) ([3]; 0.0015 μg/ml (10^−8 mol/l)): 2 ± 8% | INT-Formazan ([3]; 0.015 μg/ml (10^−7 mol/l)): 21899 ± 1879 nmol/10^5 | Comparison to control (%) ([3]; 0.015 μg/ml (10^−7 mol/l)): 1.8 ± 8% | INT-Formazan ([3]; 0.15 μg/ml (10^−6 mol/l)): 22286 ± 2036 nmol/10^5 | Comparison to control (%) ([3]; 0.15 μg/ml (10^−6 mol/l)): 3.6 ± 9% | INT-Formazan ([3]; 0.3 μg/ml (2 × 10^−6 mol/l)): 21499 ± 1959 nmol/10^5 | Comparison to control (%) ([3]; 0.3 μg/ml (2 × 10^−6 mol/l)): 0.04 ± 9% | INT-Formazan ([3]; 0.6 μg/ml (4 × 10^−6 mol/l)): 17240 ± 1637 nmol/10^5 | Comparison to control (%) ([3]; 0.6 μg/ml (4 × 10^−6 mol/l)): −19.8 ± 9% | INT-Formazan ([3]; 0.9 μg/ml (6 × 10^−6 mol/l)): 12341 ± 1061 nmol/10^5 | Comparison to control (%) ([3]; 0.9 μg/ml (6 × 10^−6 mol/l)): −42.6±8% | Comparison to control (%) ([3]; 0.9 μg/ml (6 × 10^−6 mol/l), listed as 1,8-Cineol): −42.6 ± 8% | INT-Formazan ([3]; 1.2 μg/ml (8 × 10^−6 mol/l)): 10086 ± 701 nmol/10^5 | Comparison to control (%) ([3]; 1.2 μg/ml (8 × 10^−6 mol/l)): −53.1 ± 7% | INT-Formazan ([3]; 1.5 μg/ml (10^−5 mol/l)): 10202 ± 915 nmol/10^5 | Comparison to control (%) ([3]; 1.5 μg/ml (10^−5 mol/l)): −52.6 ± 9% | O2^− ([3]; 1,8-cineol 4 × 10^−6 mol/l (0.6 μg/ml), Table 5 series): 16323 ± 1069 nmol/mL | O2^− [3, 12]: 9347 ± 494 nmol/mL | Percent of control [3, 12]: −50.2±5% | lowest antioxidatively active concentration ([3]; FCS-stimulated O2^− production): 6e-06 mol/L | inhibition of the production of O2^− radicals ([3]; therapeutically relevant concentrations of 1,8-cineol, summary): about 50% | production of NO ([4]; subtherapeutic concentrations (0.15 μg/ml=10^−6 mol/l)): inhibit the production of NO | production of NO [4, 11]: stimulating effects on the production of NO | tolerability ([5]; 4×200 mg/day orally): tolerated well, without any side-effects | patients in whom the inhalative glucocorticoid required could be reduced ([5]; 4×200 mg/day orally, after a further twelve weeks): 7 of the 10 | subjects with a slight to moderate improvement of lung function ([5]; 4×200 mg/day orally, after one week, add-on to beclometasone, salmeterol, theophyllin): 8 of the 10 | patients in whom the inhalative glucocorticoids could be discontinued altogether at times ([5]; after a further twelve weeks): 2 of the 10 | reduction of the betamimetics required ([5]; after a further twelve weeks): up to 40% | reduction of the inhalative glucocorticoid (ICS dose) required ([5]; long-term therapy with oral 1,8-cineol, one plus twelve weeks): up to 60% | patients in whom the betamimetics required could be reduced ([5]; of 10 patients treated): 5 | St. George's Respiratory Questionnaire (SGRQ), change in the verum group ([6]; 3×200 mg/day, oral): −10.4 units | lung function (FEV1), change in the verum group ([6]; 3×200 mg/day, oral): +5.1% | reduction in the exacerbation rate compared to the placebo group ([6]; 3×200 mg/day, oral, 3 winter months of two successive years, 242 smokers): −38.5% | further reduction of the frequency of exacerbations beyond known combined therapies ([6]; additional therapy with capsules which dissolve in the small intestine): 25% | production of TNF-α compared to normal monocytes of nonsmokers [7]: inhibition of the production of TNF-α | production of IL-8 compared to normal monocytes of nonsmokers [8]: increased production of IL-8 | superoxide dismutase activity [9]: partially inhibited | production of H2O2 [10]: inhibited the production of O2^− radicals and H2O2
